From ChEMBL document CHEMBL1201862, “PubChem BioAssay data set” (2004)
Values joined by “and” are separate entries in the source; they are usually repeats but may differ in a detail not shown here. Equal entries are not always repeated.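 Briefly, cells in 96-well plates were exposed to five compound concentrations for 48 h, and endpoints were estimated by linear interpolation. Here, GI50 denotes the concentration required for 50% inhibition of growth.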 Active and inactive are the calls of the source. Rule as the data show it: active = GI50 up to about 1.1 µM and inactive = higher. Residues, ends and D or L forms follow the SMILES beside them. *: point of attachment. Boc = CC(C)(C)OC(=O)*; OBn = c1ccc(CO*)cc1

Key:
Assay in all cases: DTP human tumour cell line panel, 48 h
[1] = tested on: U-251
[2] = tested on: NCI/ADR-RES
[3] = tested on: SN12C
[4] = tested on: T47D
[5] = tested on: SF-295
[6] = tested on: MCF7
[7] = tested on: HCC 2998
[8] = tested on: HCT-15
[9] = tested on: A549
[10] = tested on: LOX IMVI
[11] = tested on: Malme-3M
[12] = tested on: COLO 205
[13] = tested on: OVCAR-3
[14] = tested on: CCRF-CEM
[15] = tested on: EKVX
[16] = tested on: OVCAR-8
[17] = tested on: SK-MEL-28
[18] = tested on: MOLT-4
[19] = tested on: SK-MEL-2
[20] = tested on: MDA-MB-435
[21] = tested on: RPMI-8226
[22] = tested on: UACC-62
[23] = tested on: SW-620
[24] = tested on: NCI-H23
[25] = tested on: SK-MEL-5
[26] = tested on: K562
[27] = tested on: DU-145
[28] = tested on: NCI-H522
[29] = tested on: SF-268
[30] = tested on: UACC-257
[31] = tested on: SF-539
[32] = tested on: SNB-75
[33] = tested on: ACHN
[34] = tested on: SK-OV-3
[35] = tested on: UO-31
[36] = tested on: RXF 393
[37] = tested on: NCI-H460
[38] = tested on: MDA-MB-231
[39] = tested on: MDA-N
[40] = tested on: CAKI-1
[41] = tested on: HCT-116
[42] = tested on: 786-0
[43] = tested on: SNB-19
[44] = tested on: Hs-578T
[45] = tested on: KM12
[46] = tested on: TK-10
[47] = tested on: M14
[48] = tested on: OVCAR-5
[49] = tested on: HT-29
[50] = tested on: SR
[51] = tested on: HOP-92
[52] = tested on: A498
[53] = tested on: IGROV-1
[54] = tested on: HOP-62
[55] = tested on: OVCAR-4
[56] = tested on: NCI-H226
[57] = tested on: PC-3
[58] = tested on: HL-60

Measured: GI50

CCc1n[nH]c(=O)n1-c1ccc2ccccc2c1
> 100 µM: [8]
inactive: [1] > 100 µM | [2] > 100 µM | [3] > 100 µM | [4] > 100 µM | [5] > 100 µM | [6] > 100 µM | [7] > 100 µM | [9] > 100 µM | [10] > 100 µM | [11] > 100 µM | [12] > 100 µM | [13] > 100 µM | [14] > 100 µM | [15] > 100 µM | [16] > 100 µM | [17] > 100 µM | [18] > 100 µM | [19] > 100 µM | [20] > 100 µM | [21] > 100 µM | [22] > 100 µM | [23] > 100 µM | [24] > 100 µM | [25] > 100 µM | [26] > 100 µM | [27] > 100 µM | [28] > 100 µM | [29] > 100 µM | [30] > 100 µM | [31] > 100 µM | [32] > 100 µM | [33] > 100 µM | [34] > 100 µM | [35] > 100 µM | [36] > 100 µM | [37] > 100 µM | [38] > 100 µM | [39] > 100 µM | [40] > 100 µM | [41] > 100 µM | [42] > 100 µM | [43] > 100 µM | [44] > 100 µM | [45] > 100 µM | [46] > 100 µM | [47] > 100 µM | [48] > 100 µM | [49] > 100 µM | [50] > 100 µM | [51] > 100 µM | [52] > 100 µM | [53] > 100 µM | [54] > 100 µM | [55] > 100 µM | [56] > 100 µM

CC(C)C(NC(=O)CNC(=O)C1CCCN1C(=O)C(NC(=O)OC(C)(C)C)C(C)C)C(=O)NCC(=O)OCc1ccccc1 (configuration not stated) (Boc-VPGVG-OBn; configuration not given here)
inactive: [1] > 100 µM | [2] > 100 µM | [3] > 100 µM | [4] > 100 µM | [5] > 100 µM | [57] > 100 µM | [6] > 100 µM | [7] > 100 µM | [9] > 100 µM | [10] > 100 µM | [11] > 100 µM | [12] > 100 µM | [13] > 100 µM | [14] > 100 µM | [15] > 100 µM | [16] > 100 µM | [17] > 100 µM | [18] > 100 µM | [19] > 100 µM | [20] > 100 µM | [21] > 100 µM | [22] > 100 µM | [23] > 100 µM | [24] > 100 µM | [25] 24.5 µM | [26] 61.4 µM | [27] > 100 µM | [28] > 100 µM | [29] > 100 µM | [30] > 100 µM | [31] > 100 µM | [33] > 100 µM | [34] > 100 µM | [35] > 100 µM | [58] > 100 µM and 72.8 µM | [36] > 100 µM | [37] > 100 µM | [38] > 100 µM | [39] > 100 µM | [40] > 100 µM | [41] > 100 µM | [42] > 100 µM | [43] > 100 µM | [44] 80.7 µM | [45] > 100 µM | [47] > 100 µM | [48] > 100 µM | [49] > 100 µM | [50] > 100 µM | [51] > 100 µM | [52] > 100 µM | [53] > 100 µM and 94.6 µM | [54] > 100 µM | [55] > 100 µM | [56] > 100 µM
> 100 µM: [8]
